Results: US7642239B2, “Inhibition of placenta growth factor (PLGF) mediated metastasis and/or angiogenesis” (Center for Molecular Medicine and Immunology, priority 2005, dated 2010)
Marks after values point to notes of the source that are not given here. Ends that are not written are not given here.

Tests used:
[1] = biological target: T1, recombinant human Flt-1 fusion protein (Homo sapiens, UniProt P17948); experiment: Free peptide binding and competition ELISA, Flt-1-coated wells
T1 construct: purchased R & D Systems
Procedure: Competition assays were done with 2.5 or 25 U/ml heparin (Sigma, St. Louis, Mo.). BP1, 3, 4, and a scrambled version of BP3 (scrBP3) were synthesized with a linker followed by the FLAG epitope ([…] SEQ ID NO:5) at the C-terminus. Thirty minutes after addition of the first reagent, the second reagent was added, followed by another 30 minute incubation. Peptide binding was assessed by probing for the FLAG epitope (Prickett et al., Biotechniques 7:580-9, 1989; Castrucci et al., J. Virol. 66:4647-53, 1992). Absorbance was read at 490 nm.

MDA-MB-231 [2] = experiment: Wound-healing (motility) assay, MDA-MB-231; assay type: cell-based, human; details: for Relative activity: unit assumed; for Migrating cells: 18-24 h
Procedure: MCF-7, MDA-MB-23 1, and MDA-MB-468 breast tumor cell lines or HECs were seeded onto sterile glass coverslips in Petri dishes or six-well plates. When the cells were 70-80% confluent, the monolayers were scratched with a sterile plastic pipet tip.
Inhibitor concentrations were 50 μM PD98059 (PD98) (mitogen activated protein kinase-kinase 1 [MEK1] inhibitor), 5 nM Wortmannin (phosphatidyl inositol 3 kinase [PI3K] inhibitor), or human recombinant soluble Flt-1 (sFlt-1) (R&D Systems). […] Cells were pre-incubated with PD98 and Wortmannin for 15-30 min before addition of PlGF. Stained (Wright-Giemsa) and mounted coverslips were examined microscopically. Five to ten 100× fields were evaluated by counting the number of cells separated from the wound edges and which appeared to be migrating toward the center of the wound. Results are reported as the average number of cells migrating into the wound/100× field. In some cases data from separate experiments were combined to accommodate inclusion of various treatments in the tables.
Antibody concentration was 1 μg/ml. MEK1 inhibitor, PD98059 (PD98), 50 μM. PI3K inhibitor, Wortmannin, 5 nM. […] Values for antibody and inhibitor treatments were from separate experiments which included all relevant controls. […] UT denotes untreated controls. *P<0.01 (ANOVA) compared to UT; † P<0.02 (ANOVA) compared to PlGF only. ‡ P<0.001 (ANOVA) compared to PlGF only.

MDA-MB-231 [3] = experiment: Matrigel cell invasion assay, MDA-MB-231; assay type: cell-based, human
Procedure: Cellular invasion was determined by addition of 5×10^4cells to growth factor-reduced Matrigel invasion chambers (BD Biosciences Discovery Labware, Bedford, Mass.) (Taylor et al., 2003b; Passaniti et al., 1992, Lab Invest 67, 519-528). Additives to the Matrigel® plugs were pre-incubated together in a total volume of 100 μl PBS at RT for 10 min, after which each additive was added to the Matrigel. Growth factors (2.0 or 0.2 nM), peptide (2 μg/ml), or antibody (1 μg/ml) were added to cells in low serum (0.1% fetal bovine serum [FBS]) medium. Baseline and chemoattractant-based invasion (10% FBS) were included. The number of invading cells was determined by counting the number of cells on the bottom of the invasion chamber membrane after staining at 100× magnification after 24 h (MDA-MB-231) or 48 h (MCF-7, MDA-MB-468). The results of three to five separate experiments are presented.

[4] = test system: MDA-MB-231 s.c. xenograft; experiment: Subcutaneous MDA-MB-231 xenograft growth and lung metastasis; assay type: in vivo, nude mice
Procedure: The tissue-culture-grown human breast tumor cell line, MDA-MB-231, was implanted subcutaneously (s.c.) on the flanks of nude mice. When tumors were visible, the mice were weighed and the tumors measured. Treatment with peptides was begun when tumors averaged about 0.06-0.12 cm^3 in volume. Mice were treated with 200-μg peptide in PBS by i.p. injection at 3-4-day intervals for 4 weeks. Animals were weighed and the tumors measured at each treatment. In a second experiment, the control peptide, CPA, was included. Three days after the final treatment, tumors and lungs were harvested. Tumor burden of the lungs (from experiment 1) was determined by counting colonies (<20 cells), clusters (>20-100 cells), and nodules (>100 cells) seen in all the lung tissue on a total of 4 slides or sections for each mouse. Data are presented as the average number of each size of metastasis for each treatment group (3-4 mice/group). The total number of each was summed for each treatment group, and divided by the total number of mice in that group. The percent inhibition for metastasis was determined by the formula: % inhibition=(# mock-treated−# treated/# mock-treated)×100.
To test for therapeutic activity of the peptide, BP1, mice were implanted with human breast cancer cells, MDA-MB-231, which produces lung metastases spontaneously when implanted as a subcutaneous tumor. When the tumors averaged 0.12 cm^3 in volume, either mock-treatment or therapy with BP1 was initiated at 200 μg, two times per week for 4 weeks. […] In a subsequent experiment, treatment was commenced when tumors were 0.07-0.08 cm^3. After 4 weeks of treatment, as described, the mean volume of the mock- and CPA-treated tumors was 0.25 and 0.33 cm^3, respectively, whereas BP1-treated tumors averaged 0.04 cm^3 (P<0.05 BP1 vs. mock- or CPA-treated tumors) (FIG. 3A).

MDA-MB-231 mfp tumor = experiment: Orthotopic mammary fat pad (mfp) MDA-MB-231 model; assay type: in vivo, SCID mice
Description: MDA-MB-231, grown in tissue culture, was also implanted in the mammary fat pad (mfp) of SCID mice (3×10^6 cells, 4-5 mice/group). In this model, large pulmonary metastases are less likely to develop (Richert et al., Breast Cancer Res. 7:R819-27, 2005). Peptide treatment was commenced on day 5 after implantation, when small tumors were palpable in all mice (8 treatments). Three days after the final peptide treatment, tumors were removed and weighed. Lungs were harvested and examined microscopically for metastases, as described above.

T1 sequence (P17948 with tags, fused parts or gaps limits assumed): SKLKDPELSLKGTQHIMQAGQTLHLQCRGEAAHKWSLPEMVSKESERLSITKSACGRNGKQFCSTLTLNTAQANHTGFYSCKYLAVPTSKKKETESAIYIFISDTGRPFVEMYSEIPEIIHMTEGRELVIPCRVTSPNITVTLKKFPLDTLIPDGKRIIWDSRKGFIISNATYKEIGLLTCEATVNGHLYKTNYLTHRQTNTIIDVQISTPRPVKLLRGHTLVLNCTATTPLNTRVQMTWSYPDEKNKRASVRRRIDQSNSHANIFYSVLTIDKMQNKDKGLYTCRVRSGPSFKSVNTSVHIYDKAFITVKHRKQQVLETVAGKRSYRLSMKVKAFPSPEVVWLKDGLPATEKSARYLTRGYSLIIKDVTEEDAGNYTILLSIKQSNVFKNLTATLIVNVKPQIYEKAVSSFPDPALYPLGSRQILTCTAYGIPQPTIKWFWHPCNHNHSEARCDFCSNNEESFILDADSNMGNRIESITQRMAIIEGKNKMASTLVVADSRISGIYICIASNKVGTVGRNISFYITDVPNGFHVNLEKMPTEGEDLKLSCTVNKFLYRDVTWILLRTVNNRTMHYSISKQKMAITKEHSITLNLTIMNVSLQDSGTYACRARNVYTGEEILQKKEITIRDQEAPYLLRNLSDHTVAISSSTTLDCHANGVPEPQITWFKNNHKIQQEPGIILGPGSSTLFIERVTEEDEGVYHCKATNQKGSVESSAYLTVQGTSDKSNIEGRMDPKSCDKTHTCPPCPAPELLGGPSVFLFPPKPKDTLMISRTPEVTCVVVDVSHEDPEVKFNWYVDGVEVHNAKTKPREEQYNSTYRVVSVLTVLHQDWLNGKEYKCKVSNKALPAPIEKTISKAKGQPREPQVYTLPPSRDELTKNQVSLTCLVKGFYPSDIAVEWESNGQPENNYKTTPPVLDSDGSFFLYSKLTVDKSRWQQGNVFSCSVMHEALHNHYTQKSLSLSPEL

Sequence: SHRYRLAIQLHASDSSSSCV [BP1]
- binding to Flt-1, fold over background [1]: 10 fold
- inhibition at 1 µM ([1]; 1 μM BP1 followed by 2.5 U/ml heparin, read-out: inhibition of BP1 binding to Flt-1, BP1 added prior to heparin): 13%
- binding to immobilized Flt-1 (A490), BP1 only ([1]; 5 μM BP1 only): 0.527±0.025
- binding to immobilized Flt-1 (A490), with added free Flt-1 ([1]; 5 μM BP1 with added free Flt-1 (2 nM)): 0.327±0.127
- decrease in BP1 binding to Flt-1, heparin added before BP1 ([1]; 2.5 U/ml heparin followed by 1 μM BP1): 64%
- effect of PlGF on the binding of BP1 to Flt-1 ([1]; PlGF between 1 and 100 nM): no significant effect
- decrease in binding of BP1 to immobilized Flt-1 by free Flt-1 ([1]; free Flt-1 2 nM, 5 μM BP1): 38%
- binding to Flt-1 (A490) ([1]; peptide with C-terminal FLAG epitope): 0.886±0.096
- Relative activity (MDA-MB-231 [2]; PlGF 2 nM ± test agent, relative to PlGF-only value): 32%
- Relative activity (MDA-MB-231 [2]; VEGF 2 nM ± test agent, relative to VEGF-only value): 132%
- effect on PlGF-stimulated motility (in words) (MDA-MB-231 [2]; antibody 1 μg/ml, peptide 2 μM): inhibited
- Migrating cells (MDA-MB-231 [2]; growth factor PlGF 2 nM ± test agent (Flt-1 2 nM, peptide 2 μM, antibody 1 μg/ml, PD98059 50 μM, Wortmannin 5 nM)): 13.6 ± 6.1† cells/100× field
- Migrating cells (MDA-MB-231 [2]; growth factor VEGF 2 nM ± test agent (peptide 2 μM, antibody 1 μg/ml)): 14.7 ± 2.1 cells/100× field
- Average fold-change in the number of cells on the membrane compared to untreated controls (MDA-MB-231 [3]; PlGF 0.2 nM ± peptide 2 μg/ml, 24 h): 1.3 ± 0.1 fold
- invading cells, PlGF plus peptide (MDA-MB-231 [3]; PlGF-stimulated invasion with added peptide, 24 h): 15±4.2 cells
- decrease in PlGF-stimulated invasion (MDA-MB-231 [3]; added peptide): 50%
- Average fold-change in the number of cells on the membrane compared to untreated controls (MDA-MB-231 [3]; peptide 2 μg/ml alone, 24 h): 1.0 ± 0.6 fold
- reduction in tumor size compared to mock-treated controls ([4]; start at 0.12 cm^3, 200 μg two times per week for 4 weeks): 37%
- mean tumor volume after 4 weeks of treatment ([4]; subsequent experiment, start at 0.07-0.08 cm^3, 200 μg i.p., mock 0.25): 0.04 cm^3
- lung colonies (<20 cells) per mouse ([4]; total lung tissue/mouse, mock 36±6): 5±2
- lung clusters (>20-100 cells) per mouse ([4]; total lung tissue/mouse, mock 76±19): 9±2
- lung nodules (>100 cells) per mouse ([4]; total lung tissue/mouse, mock 78±25): 5±2
- decrease in the number of metastatic lung nodules ([4]; vs mock-treated): 94%
- tumor weight (MDA-MB-231 mfp tumor; 8 peptide treatments, mock-treated 0.423±0.089): 0.345 ± 0.095 g
- reduction in metastases (MDA-MB-231 mfp tumor; lung micrometastases): 82%
- micrometastasis counts per mouse (MDA-MB-231 mfp tumor; lung, mock-treated 3.4±1.9): 0.6±0.5
- decrease in tumor weight (MDA-MB-231 mfp tumor; vs mock-treated, did not reach statistical significance): 23%
